Experimental data from patent US10214508B2, “Nitrogen-containing heterocyclic compound” (Takeda Pharmaceutical Company Limited, priority 2014, dated 2019).

Experiments:
[1] = target: T1, human M1 receptor (hCHRM1) (Homo sapiens, UniProt P11229); test: Measurement of M1 receptor positive allosteric modulator (M1PAM) activity, calcium fluorescence (FLIPRtetra); assay type: cell-based; conditions: 10 μM test compound with acetylcholine at EC20 (final 0.6-0.8 nM); 100% = acetylcholine 1 μM, 0% = DMSO; CHO-K1 cells expressing hCHRM1
T1 construct: expressed in transfected cells
T1 sequence (P11229 1-460): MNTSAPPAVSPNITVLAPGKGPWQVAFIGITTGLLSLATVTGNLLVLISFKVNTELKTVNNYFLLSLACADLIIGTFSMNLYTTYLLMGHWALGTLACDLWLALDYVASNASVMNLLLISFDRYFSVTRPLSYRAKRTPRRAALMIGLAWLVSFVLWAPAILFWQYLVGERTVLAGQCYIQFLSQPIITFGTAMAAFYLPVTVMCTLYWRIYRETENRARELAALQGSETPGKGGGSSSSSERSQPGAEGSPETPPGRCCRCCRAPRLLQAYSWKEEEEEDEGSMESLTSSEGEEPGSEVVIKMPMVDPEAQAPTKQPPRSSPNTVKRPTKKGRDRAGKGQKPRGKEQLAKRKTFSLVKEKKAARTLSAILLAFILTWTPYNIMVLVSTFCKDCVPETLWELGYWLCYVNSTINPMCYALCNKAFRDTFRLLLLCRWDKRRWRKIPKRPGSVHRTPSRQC
Method in brief: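 CHO-K1 cells stably expressing hM1 were Fluo-4-loaded; compound added with acetylcholine at EC20 (0.6-0.8 nM final), calcium fluorescence read 1 min on FLIPRtetra. Activity scaled between DMSO (0%) and 1 μM acetylcholine (100%); inflection point of concentration–response reported as IP.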

IP1 production = test: Measurement of myo-inositol 1 phosphate (IP1) in hippocampi after oral administration; assay type: in vivo, male Long-Evans rats; conditions: rat hippocampus, relative to Vehicle administration group as 100%
Procedure: Measurement of Myo-Inositol 1 Phosphate (IP1)
Animals used were male Long-Evans rats. They were used after acclimation for at least 1 week. Test compounds were suspended in 0.5% (w/v) aqueous methylcellulose solution, and the suspension was orally administered to the rats. After a given time, lithium chloride was dissolved in saline and subcutaneously administered into the rats. After a given time, their bilateral hippocampi were isolated from the rats, and the wet weight thereof was measured. The isolated hippocampi were homogenized with HEPES buffer, followed by centrifugation. The IP1 and protein concentrations in the supernatant were measured by IP-One HTRF(R) assay kit (Cisbio Bioassays) and BCA protein assay kit (Thermo Scientific), respectively. The level of the IP1 production was expressed as the ratio of the concentration of IP1 to that of protein. The increase rate of the IP1 production was shown as a relative value when Vehicle administration group as 100%.

[2] = tested on: Scopolamine-induced memory deficits models; test: Novel object recognition test; assay type: in vivo, male Long-Evans rats; conditions: 2 hours before acquisition trial, scopolamine 0.1 mg/kg s.c., mean±standard error
Procedure: Novel Object Recognition Test Novel object recognition test is comprised of two trials called the acquisition and the retention trials. Scopolamine-induced memory deficits models were used for the test, and animals used were male Long-Evans rats (7-week-old). On the day before the test, for acclimation, the rats were allowed to freely move about the test box (40×40×50 cm) for 10 minutes. On the test day, the rats were acclimated to the test room for about for 1 hr prior to the test. The test compounds were orally administered to the rats in a single dose 2 hours before the acquisition trial. For induction of learning and memory deficits, scopolamine (0.1 mg/kg) was subcutaneously administered into the rats for 30 min before the acquisition trial. For the acquisition trial, two identical objects (A1, A2) were placed in the test box. The rats were put in the test box for 3 min, and the duration exploring each object was measured. The retention trial was performed for 4 hr after the acquisition trial. For the retention trial, one familiar object (A3) used for the acquisition trial and one novel object (B) having a different shape from A3 were placed in the test box. After setting the objects, the rats were introduced into the test box and retention trial was performed for 3 min. The duration for exploring each object in the acquisition trial and the retention trial was measured, and the exploration rate of novel object was calculated. The exploration rate of novel object was expressed as (the duration exploring the novel object)/[(the duration exploring the novel object)+(the duration exploring the familiar object)]×100(%) at mean±standard error.

Structure (SMILES) | activity (%) at 10 μM [1] [%] | further results
Cc1nc(C(=O)N[C@H]2CCC[C@@H]2O)cc(Cc2ccc(-c3ccn(C)n3)cc2)c1C [Example 72, N-((1S,2S)-2-hydroxycyclopentyl)-5,6-dimethyl-4-(4-(1-methyl-1H-pyrazol-3-yl)benzyl)pyridine-2-carboxamide] | 105 | increase rate (%) of the IP1 production (IP1 production; 10 mg/kg): 70%; exploration rate of novel object (%) ([2]; 3 mg/kg oral, control group 66.74±3.01%, solvent-scopolamine group 47.48±3.66%): 53.16±2.80%
Cc1nc(C(=O)N[C@H]2CCCC[C@@H]2O)cc(Cc2ccc(-c3ccn(C)n3)nc2)c1C [Example 74, N-((1S,2S)-2-hydroxycyclohexyl)-5,6-dimethyl-4-((6-(1-methyl-1H-pyrazol-3-yl)pyridin-3-yl)methyl)pyridine-2-carboxamide] | 103 | increase rate (%) of the IP1 production (IP1 production; 3 mg/kg): 22%; exploration rate of novel object (%) ([2]; 10 mg/kg oral, control group 66.74±3.01%, solvent-scopolamine group 47.48±3.66%): 55.14±1.48%
Cc1cnc(C(=O)N[C@H]2CCC[C@@H]2O)cc1Cc1ccc(-c2ccn(C)n2)cc1 [Example 1, N-((1S,2S)-2-hydroxycyclopentyl)-5-methyl-4-(4-(1-methyl-1H-pyrazol-3-yl)benzyl)pyridine-2-carboxamide] | 86 | increase rate (%) of the IP1 production (IP1 production; 10 mg/kg): 38%; exploration rate of novel object (%) ([2]; 10 mg/kg oral, control group 69.26±2.87%, solvent-scopolamine group 55.27±3.48%): 64.59±2.59%
Cn1ccc(-c2ccc(Cc3cc(C(=O)N[C@H]4CCCC[C@@H]4O)ncc3Cl)cc2)n1 [Example 51, 5-chloro-N-((1S,2S)-2-hydroxycyclohexyl)-4-(4-(1-methyl-1H-pyrazol-3-yl)benzyl)pyridine-2-carboxamide] | 95 | 
Cc1nc(C(=O)N[C@H]2CCCC[C@@H]2O)cc(Cc2ccc(-c3ccn(C)n3)cc2)c1C#N [Example 114, 5-cyano-N-((1S,2S)-2-hydroxycyclohexyl)-6-methyl-4-(4-(1-methyl-1H-pyrazol-3-yl)benzyl)pyridine-2-carboxamide] | 94 | 
Cc1cnc(C(=O)N[C@H]2COCC[C@@H]2O)cc1Cc1ccc(-n2cccn2)cc1F [Example 17, 1,5-anhydro-2,4-dideoxy-2-(((4-(2-fluoro-4-(1H-pyrazol-1-yl)benzyl)-5-methylpyridin-2-yl)carbonyl)amino)-L-threo-pentitol] | 98 | 
COc1nc(C(=O)N[C@H]2COCC[C@@H]2O)cc(Cc2ccc(-n3cccn3)cc2)c1C [Example 92, 1,5-anhydro-2,4-dideoxy-2-(((6-methoxy-5-methyl-4-(4-(1H-pyrazol-1-yl)benzyl)pyridin-2-yl)carbonyl)amino)-L-threo-pentitol] | 99 | 
CCc1cnc(C(=O)N[C@H]2CCCC[C@@H]2O)cc1Cc1ccc(-n2cccn2)cc1 [Example 43, 5-ethyl-N-((1S,2S)-2-hydroxycyclohexyl)-4-(4-(1H-pyrazol-1-yl)benzyl)pyridine-2-carboxamide] | 92 | 
Cc1nc(C(=O)N[C@H]2COCC[C@@H]2O)cc(Cc2ccc(-n3cccn3)cc2)c1C#N [Example 113, 1,5-anhydro-2-(((5-cyano-6-methyl-4-(4-(1H-pyrazol-1-yl)benzyl)pyridin-2-yl)carbonyl)amino)-2,4-dideoxy-L-threo-pentitol] | 94 | 
O=C(N[C@H]1CCCC[C@@H]1O)c1cc(Cc2ccc(-n3cccn3)cc2)c(C(F)F)cn1 [Example 38, 5-(difluoromethyl)-N-((1S,2S)-2-hydroxycyclohexyl)-4-(4-(1H-pyrazol-1-yl)benzyl)pyridine-2-carboxamide] | 101 | 
Cc1cnc(C(=O)NC2CC(F)(F)CCC2O)cc1Cc1ccc(-c2ccn(C)n2)cc1 (stereo not drawn) [Example 25, N-(5,5-difluoro-2-hydroxycyclohexyl)-5-methyl-4-(4-(1-methyl-1H-pyrazol-3-yl)benzyl)pyridine-2-carboxamide] | 85 | 
Cn1ccc(-c2ccc(Cc3cc(C(=O)N[C@H]4CCCC[C@@H]4O)ncc3C(F)F)cc2)n1 [Example 41, 5-(difluoromethyl)-N-((1S,2S)-2-hydroxycyclohexyl)-4-(4-(1-methyl-1H-pyrazol-3-yl)benzyl)pyridine-2-carboxamide] | 95 | 
